Patent US20070213346A1, “Substituted 4-Alkyl-And 4-Alkanoyl-Piperidine Derivatives And Their Use As Neurokinin Antagonists” (priority 2004, published 2007)

Key:
Format in all cases: cell-based
[1] = target: NK1 (Homo sapiens, UniProt P25103); assay: Signal transduction (ST), intracellular Ca++ FLIPR, NK1; conditions: antagonist, Ca++ transient peak, read-out: NK1 pIC50 (converted)
Protocol: (§1) This test evaluates in vitro functional NK1 antagonistic activity. For the measurements of intracellular Ca^++ concentrations the cells were grown on 96-well (black wall/transparent bottom) plates from Costar for 2 days until they reached confluence. The cells were loaded with 2 μM Fluo3 in DMEM containing 0.1% BSA and 2.5 mM probenecid for 1 h at 37° C. They were washed 3× with a Krebs buffer (140 mM NaCl, 1 mM MgCl2x6H2O, 5 mM KCl, 10 mM glucose, 5 mM HEPES; 1.25 mM CaCl2; pH 7.4) containing 2.5 mM probenecid and 0.1% BSA (Ca^++-buffer). The cells were preincubated with a concentration range of antagonists for 20 min at RT and Ca^++-signals after addition of the agonists were measured in a Fluorescence Image Plate Reader (FLIPR from Molecular Devices, Crawley, England). The peak of the Ca^++-transient was considered as the relevant signal and the mean values of corresponding wells were analysed as described below.
The sigmoidal dose response curves were analysed by computerised curve-fitting, using the GraphPad program. The EC50-value of a compound is the effective dose showing 50% of maximal effect. For mean curves the response to the agonist with the highest potency was normalised to 100%. For antagonist responses the IC50-value was calculated using non-linear regression. […]

[2] = target: T1, NK2 (Homo sapiens, UniProt P21452); assay: Signal transduction (ST), intracellular Ca++ FLIPR, NK2; conditions: antagonist, Ca++ transient peak, read-out: NK2 pIC50 (converted)
T1 sequence (P21452 1-398): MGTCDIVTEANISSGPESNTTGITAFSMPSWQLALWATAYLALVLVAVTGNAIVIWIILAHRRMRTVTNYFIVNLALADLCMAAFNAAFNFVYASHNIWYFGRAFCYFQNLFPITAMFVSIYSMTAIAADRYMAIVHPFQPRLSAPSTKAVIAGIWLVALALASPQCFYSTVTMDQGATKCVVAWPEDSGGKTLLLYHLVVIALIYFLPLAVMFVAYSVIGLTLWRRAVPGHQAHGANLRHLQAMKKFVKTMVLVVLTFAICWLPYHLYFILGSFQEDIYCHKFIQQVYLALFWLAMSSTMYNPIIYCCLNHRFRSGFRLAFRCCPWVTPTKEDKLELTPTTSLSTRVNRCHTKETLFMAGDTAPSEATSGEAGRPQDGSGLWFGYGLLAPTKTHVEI
Protocol: [The source words this procedure for another target and reports this target under the same test.] as §1
(§2) The sigmoidal dose response curves were analysed by computerised curve-fitting, using the GraphPad program. The EC50-value of a compound is the effective dose showing 50% of maximal effect. For mean curves the response to the agonist with the highest potency was normalised to 100%. For antagonist responses the IC50-value was calculated using non-linear regression.
(§3) The last columns indicates—without being limited thereto—for which use the compounds might be most suitable. Of course, since for some neurokinin receptors no data was determined, it is obvious that these compounds might be attributed to another suitable use.

[3] = target: T2, NK3 (Homo sapiens, UniProt P29371); assay: Signal transduction (ST), intracellular Ca++ FLIPR, NK3; conditions: antagonist, Ca++ transient peak, read-out: NK3 pIC50 (converted)
T2 sequence (P29371 1-465): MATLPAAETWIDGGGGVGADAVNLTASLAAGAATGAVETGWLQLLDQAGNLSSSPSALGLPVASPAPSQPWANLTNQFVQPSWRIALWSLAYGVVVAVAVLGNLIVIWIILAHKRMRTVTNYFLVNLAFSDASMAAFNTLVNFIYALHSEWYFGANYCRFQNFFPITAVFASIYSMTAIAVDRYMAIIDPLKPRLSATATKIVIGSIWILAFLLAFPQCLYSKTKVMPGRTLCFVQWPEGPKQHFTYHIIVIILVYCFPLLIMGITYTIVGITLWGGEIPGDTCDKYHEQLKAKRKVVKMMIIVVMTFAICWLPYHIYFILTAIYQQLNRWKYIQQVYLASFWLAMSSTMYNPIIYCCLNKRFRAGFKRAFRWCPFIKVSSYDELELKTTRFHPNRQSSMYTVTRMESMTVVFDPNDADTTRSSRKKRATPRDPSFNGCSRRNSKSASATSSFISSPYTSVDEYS
Protocol: [The source words this procedure for another target and reports this target under the same test.] as §1, §2, §3

NK1, sequence (P25103 whole entry): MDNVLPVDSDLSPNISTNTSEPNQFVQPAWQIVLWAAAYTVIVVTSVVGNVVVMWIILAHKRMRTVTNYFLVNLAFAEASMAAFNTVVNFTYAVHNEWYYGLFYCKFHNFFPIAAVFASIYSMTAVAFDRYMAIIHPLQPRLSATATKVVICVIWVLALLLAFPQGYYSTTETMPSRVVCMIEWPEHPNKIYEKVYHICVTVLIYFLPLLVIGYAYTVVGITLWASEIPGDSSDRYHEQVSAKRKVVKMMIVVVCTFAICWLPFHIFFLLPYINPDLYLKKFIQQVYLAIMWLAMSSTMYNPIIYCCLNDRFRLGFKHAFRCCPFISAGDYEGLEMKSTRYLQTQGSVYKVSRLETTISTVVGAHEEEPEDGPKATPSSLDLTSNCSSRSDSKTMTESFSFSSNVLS

In the case of `O=C(c1cccnc1)N1CCC(N2CCN(C[C@H]3CCN(C(=O)c4cc(C(F)(F)F)cc(C(F)(F)F)c4)[C@H](Cc4ccccc4)C3)CC2)CC1` [Compound 48], the IC50 [1] is reported as 0.0257 µM and the IC50 [2] is reported as > 10 µM.

Compound `O=C(c1cc(C(F)(F)F)cc(C(F)(F)F)c1)N1CCC(CN2CCN(C3CCN(c4ncccn4)CC3)CC2)CC1Cc1ccccc1` (centres unmarked) [Compound 17] has an IC50 [3] of 5.25 µM, an IC50 [1] of 0.0851 µM and an IC50 [2] of 7.24 µM.

`O=C(c1ccccc1)N1CCC(N2CCN(CC3(O)CCN(C(=O)c4cc(C(F)(F)F)cc(C(F)(F)F)c4)C(Cc4ccccc4)C3)CC2)C1` (centres unmarked) [Compound 79] was tested, and the IC50 [3] was 7.24 µM, the IC50 [1] was 0.0316 µM and the IC50 [2] was 9.12 µM.

For `O=C(c1cccnc1)N1CCC(N2CCN(CC3(O)CCN(C(=O)c4cc(C(F)(F)F)cc(C(F)(F)F)c4)C(Cc4ccccc4)C3)CC2)C1` (centres unmarked) [Compound 80], the IC50 [3] was > 10 µM, the IC50 [1] was 0.0302 µM and the IC50 [2] was 8.13 µM.

In the case of `Cc1ccc(N2CCC(N3CCN(CC4CCN(C(=O)c5cc(C(F)(F)F)cc(C(F)(F)F)c5)C(Cc5ccccc5)C4)CC3)CC2)nn1` (centres unmarked) [Compound 18], the IC50 [3] is reported as > 10 µM, the IC50 [1] is reported as 0.229 µM and the IC50 [2] is reported as > 10 µM.

`Cn1c(Cl)cnc1CN1CCC(N2CCN(CC3CCN(C(=O)c4cc(C(F)(F)F)cc(C(F)(F)F)c4)C(Cc4ccccc4)C3)CC2)CC1` (centres unmarked) [Compound 20] was tested, and the IC50 [3] was > 10 µM, the IC50 [1] was 0.0933 µM and the IC50 [2] was > 10 µM.

Compound `O=C(C1CCOC1)N1CCC(N2CCN(C(=O)[C@H]3CCN(C(=O)c4cc(C(F)(F)F)cc(C(F)(F)F)c4)[C@H](Cc4ccccc4)C3)CC2)CC1` (some centres unmarked) [Compound 92] has an IC50 [3] of 0.871 µM, an IC50 [1] of 0.024 µM and an IC50 [2] of 6.76 µM.

In the case of `O=C(c1cc(C(F)(F)F)cc(C(F)(F)F)c1)N1CCC(CN2CCN(C3CCN(c4cnccn4)CC3)CC2)CC1Cc1ccccc1` (centres unmarked) [Compound 19], the IC50 [3] is reported as 7.94 µM, the IC50 [1] is reported as 0.288 µM and the IC50 [2] is reported as > 10 µM.

With `O=C(c1cc(C(F)(F)F)cc(C(F)(F)F)c1)N1CCC(O)(CN2CCN(C3CCNC3)CC2)CC1Cc1ccccc1` (centres unmarked) [Compound 76] the IC50 [3] was > 10 µM, the IC50 [1] was 0.148 µM and the IC50 [2] was > 10 µM.

`O=C(C1CC1)N1CCC(N2CCN(CC3CCN(C(=O)c4cc(C(F)(F)F)cc(C(F)(F)F)c4)C(Cc4ccccc4)C3)CC2)CC1` (centres unmarked) [Compound 15] was tested, and the IC50 [3] was ~7.76 µM, the IC50 [1] was 0.191 µM and the IC50 [2] was ~3.16 µM.

`COc1cccc(CC(=O)N2CCC(N3CCN(CC4CCN(C(=O)c5cc(C(F)(F)F)cc(C(F)(F)F)c5)C(Cc5ccccc5)C4)CC3)CC2)c1` (centres unmarked) [Compound 52] was tested, and the IC50 [3] was ~9.77 µM, the IC50 [1] was 0.316 µM and the IC50 [2] was 2.34 µM.

With `Cc1nnsc1C(=O)N1CCC(N2CCN(C[C@H]3CCN(C(=O)c4cc(C(F)(F)F)cc(C(F)(F)F)c4)[C@H](Cc4ccccc4)C3)CC2)C1` (some centres unmarked) [Compound 63] the IC50 [3] was > 10 µM, the IC50 [1] was 0.0708 µM and the IC50 [2] was > 10 µM.

For `O=C(c1ccoc1)N1CCC(N2CCN(CC3(O)CCN(C(=O)c4cc(C(F)(F)F)cc(C(F)(F)F)c4)C(Cc4ccccc4)C3)CC2)C1` (centres unmarked) [Compound 78], the IC50 [3] was 2.51 µM, the IC50 [1] was 0.0363 µM and the IC50 [2] was 8.91 µM.

With `O=C(C1CC1)N1CCC(N2CCN(C[C@H]3CCN(C(=O)c4cc(C(F)(F)F)cc(C(F)(F)F)c4)[C@H](Cc4ccccc4)C3)CC2)C1` (some centres unmarked) [Compound 61] the IC50 [3] was > 10 µM, the IC50 [1] was 0.0741 µM and the IC50 [2] was > 10 µM.

Compound `O=C(c1cccs1)N1CCC(N2CCN(C[C@H]3CCN(C(=O)c4cc(C(F)(F)F)cc(C(F)(F)F)c4)[C@H](Cc4ccccc4)C3)CC2)CC1` (relative stereo) [Compound 37] has an IC50 [3] of 7.08 µM, an IC50 [1] of 0.275 µM and an IC50 [2] of 8.91 µM.

For `O=C(c1cc(C(F)(F)F)cc(C(F)(F)F)c1)N1CCC(CN2CCN(C3CCNC3)CC2)CC1Cc1ccccc1` (centres unmarked) [Compound 60], the IC50 [3] was > 10 µM, the IC50 [1] was 0.182 µM and the IC50 [2] was > 10 µM.

In the case of `O=C(c1ccccc1)N1CCC(N2CCN(C[C@H]3CCN(C(=O)c4cc(C(F)(F)F)cc(C(F)(F)F)c4)[C@H](Cc4ccccc4)C3)CC2)C1` (some centres unmarked) [Compound 64], the IC50 [3] is reported as > 10 µM, the IC50 [1] is reported as 0.117 µM and the IC50 [2] is reported as > 10 µM.

With `O=C(c1cccnc1)N1CCC(N2CCN(C[C@H]3CCN(C(=O)c4cc(C(F)(F)F)cc(C(F)(F)F)c4)[C@H](Cc4ccccc4)C3)CC2)C1` (some centres unmarked) [Compound 65] the IC50 [3] was > 10 µM, the IC50 [1] was 0.105 µM and the IC50 [2] was > 10 µM.

Compound `O=C(C1CC1)N1CCC(N2CCN(C(=O)[C@H]3CCN(C(=O)c4cc(C(F)(F)F)cc(C(F)(F)F)c4)[C@H](Cc4ccccc4)C3)CC2)CC1` [Compound 56] has an IC50 [3] of 0.692 µM, an IC50 [1] of 0.0123 µM and an IC50 [2] of 4.68 µM.

`O=C(c1ccoc1)N1CCC(N2CCN(CC3CCN(C(=O)c4cc(C(F)(F)F)cc(C(F)(F)F)c4)C(Cc4ccccc4)C3)CC2)C1` (centres unmarked) [Compound 11] showed an IC50 [3] of ~7.94 µM, an IC50 [1] of 0.0501 µM and an IC50 [2] of 7.41 µM.

For `O=C(c1ccsc1)N1CCC(N2CCN(C[C@H]3CCN(C(=O)c4cc(C(F)(F)F)cc(C(F)(F)F)c4)[C@H](Cc4ccccc4)C3)CC2)C1` (some centres unmarked) [Compound 62], the IC50 [3] was > 10 µM, the IC50 [1] was 0.1 µM and the IC50 [2] was 7.24 µM.

In the case of `Cc1nnsc1C(=O)N1CCC(N2CCN(CC3(O)CCN(C(=O)c4cc(C(F)(F)F)cc(C(F)(F)F)c4)C(Cc4ccccc4)C3)CC2)C1` (centres unmarked) [Compound 93], the IC50 [3] is reported as 4.27 µM, the IC50 [1] is reported as 0.0398 µM and the IC50 [2] is reported as 7.76 µM.

Compound `O=C(C1CC1)N1CCC(N2CCN(CC3(O)CCN(C(=O)c4cc(C(F)(F)F)cc(C(F)(F)F)c4)C(Cc4ccccc4)C3)CC2)C1` (centres unmarked) [Compound 77] has an IC50 [3] of 2.88 µM, an IC50 [1] of 0.0427 µM and an IC50 [2] of 7.94 µM.
